Here are results for 9 molecules from patent publication US20250066386A1, “INHIBITORS OF KRAS” (BIOMEA FUSION, INC., priority 2022, published 2025).

Read-outs that look alike come from different tables or passages of the source.

For the assay, the system named is human KRAS G12C mutated cell line MIA PaCa-2. Briefly: KRas G12C in vitro inhibitory activity: cell proliferation, CellTiter-Glo. It counts as cell-based.
Excerpt: The present example evaluates the ability of compounds provided herein to inhibit proliferation of KRAS mutant cells.
The inhibitory effect on cell proliferation was investigated in the human KRAS G12C mutated cell line MIA PaCa-2 (Yunis et al., 1977, Int. J. Cancer 19(1):128-135; ATCC catalog no. CRL-1420). Cells were maintained in RPMI-1640 medium (ThermoFisher catalog no. 61870036) supplemented with 10% of Heat Inactivated FBS (ThermoFisher catalog no. A31605) and 1% Pen-Strep (ThermoFisher catalog no. 10378016) and cultured at 37° C. in a humidified incubator with 5% CO2. Cells were grown by adhering to culture flasks, and maintained at 70%-80% confluency.
ATP is present in all metabolically active cells and is considered as a marker for viable cells. The number of metabolically active live cells in culture was determined using the CellTiter-Glo kit (Promega catalog no. G7572), an ATP monitoring system based on the production of luminescence by the reaction of ATP with added UltraGlo® recombinant luciferase (Kawano et al., 2016, PLOS One, 8; 11(7):e0158888), according to the supplier's experimental recommendations. The cell proliferation assay was based on a 96 well plate format.
Test compounds were dissolved at 10 mM in DMSO (Sigma catalog no. D8418; purity >99.9%) and stored at −20° C. Eight concentrations of test compound were assessed in duplicate in an individual test occasion in parallel in the selected cell lines. MRTX-849 and AMG-510 were used as reference compounds and tested in duplicate at eight concentrations. 100% of proliferation is represented by the untreated cells (0.2% DMSO).
On the day of the experiment (TO), cells were detached with TrypLE (ThermoFisher catalog no. 12604054), quantified using the cell viability analyser NucleoCounter (Chemometec NC-200) and resuspended in fresh medium at a cell density of about 5000 cells per 200 μL medium. 200 μL of cell suspension were added to each well of a 96 well plate.
Two hours after seeding cells, compounds were added at desired concentrations using a D300e compound dispenser (Life Sciences Tecan D300) with shaking after each compound addition. Assay plates were incubated at 37° C. in a humidified incubator with 5% CO2.
(§1) To measure 3 day inhibition of cell proliferation on day 3 (T3), assay plates were equilibrated to room temperature for approximately 15 min, and the Promega CellTiterGlo® reagent was added at 40 μL/well. Contents were mixed for 5 min on an orbital shaker to induce cell lysis, and then incubated at room temperature for an additional 10 min in the dark to stabilize the luminescent signal. Luminescence was read using a GloMax GM300 plate reader (Promega) using the luminescence for 96 well plate standard protocol.
as §1, with “measure 7” for “measure 3”, “(T3), 150 μL of growth media was removed from each well of the assay plates and replaced with 150 uL fresh growth media, and fresh compounds added using a D300e compound dispenser (Life Sciences Tecan D300) at desired concentrations with shaking between each compound addition. Assay plates were incubated at 37° C. in a humidified incubator with 5% CO2. On day 7 (T7)” for “(T3),”
Data was expressed as % of inhibition compared to the 0.2% DMSO negative no drug control, and is calculated as follows: % inhibition=100−[(RLU sample)×100/(RLU average controls*)], where * indicates the average for 0.2% DMSO.
Results were analyzed by GraphPad (Prism) and IC50 values were calculated by non-linear regression using four parameter-logistic equation. […]
For orientation: Cellular ATP, detected with luciferase, serves as a proxy for viable cell number.

[1] abbreviates: Homo sapiens, MIA PaCa-2, 72 h, 3 day inhibition of cell proliferation, CellTiter-Glo luminescence, read-out: MIA PaCa-2 Day 3 IC50.
[2] abbreviates: Homo sapiens, MIA PaCa-2, 7 day inhibition of cell proliferation, medium and compound renewed on day 3, CellTiter-Glo luminescence, read-out: MIA PaCa-2 Day 7 IC50.

Broadly, the IC50 is the concentration needed to halve the response being measured. Regarding `CCn1c(-c2cccnc2[C@H](C)OC)c2c3cc(ccc31)-c1cccc(c1)C[C@H](NC(=O)[C@H](C(C)C)N(C)C(=O)[C@H]1CCN(C(=O)C#CCN3CCOCC3)C1)C(=O)N1CCC[C@H](C1)C(=O)OCC(C)(C)C2` (atropisomer, axis not shown) [Compound 2, (3S)—N-((2S)-1-(((6^3R,4S)-1^1-ethyl-1^2-(2-((S)-1-methoxyethyl)pyridin-3-yl)-10,10-dimethyl-5,7-dioxo-1^1H-8-oxa-1(5,3)-indola-6(1,3)-piperidina-2(1,3)-benzenacycloundecaphane-4-yl)amino)-3-methyl-1-oxobutan-2-yl)-N-methyl-1-(4-morpholinobut-2-ynoyl)pyrrolidine-3-carboxamide], the 50% inhibitory concentration (IC50) is greater than 100 nM (7 day inhibition of cell proliferation, medium and compound renewed on day 3, CellTiter-Glo luminescence, read-out: MIA PaCa-2 Day 7 IC50); greater than 100 nM under setting [1].
As to `CCn1c(-c2cccnc2[C@H](C)OC)c2c3cc(ccc31)-c1cccc(c1)C[C@H](NC(=O)[C@H](C(C)C)N(C)C(=O)[C@H]1CCN(C(=O)C#CCN(C)C)C1)C(=O)N1CC[C@H](C1)C(=O)OCC(C)(C)C2` (atropisomer, axis not shown) [Compound 103, (3S)-1-(4-(dimethylamino)but-2-ynoyl)-N-((2S)-1-(((6^3R,4S)-1^1-ethyl-1^2-(2-((S)-1-methoxyethyl)pyridin-3-yl)-10,10-dimethyl-5,7-dioxo-1^1H-8-oxa-1(5,3)-indola-6(1,3)-pyrrolidina-2(1,3)-benzenacycloundecaphane-4-yl)amino)-3-methyl-1-oxobutan-2-yl)-N-methylpyrrolidine-3-carboxamide], the IC50 under setting [1] is greater than 100 nM.
Turning to `CCn1c(-c2cccnc2[C@H](C)OC)c2c3cc(ccc31)-c1cccc(c1)C[C@H](NC(=O)[C@H](C(C)C)N(C)C(=O)[C@H]1CCN(C(=O)C#CCN3CCOCC3)C1)C(=O)N1CCC[C@@H](CC(=O)OC(C)(C)C2)C1` [Compound 106, (3S)—N-((2S)-1-(((6^3S,4S)-1^1-ethyl-1^2-(2-((S)-1-methoxyethyl)pyridin-3-yl)-10,10-dimethyl-5,8-dioxo-1^1H-9-oxa-1(5,3)-indola-6(1,3)-piperidina-2(1,3)-benzenacycloundecaphane-4-yl)amino)-3-methyl-1-oxobutan-2-yl)-N-methyl-1-(4-morpholinobut-2-ynoyl)pyrrolidine-3-carboxamide], under setting [1], the IC50 is greater than 100 nM.
`CCn1c(-c2cccnc2[C@H](C)OC)c2c3cc(ccc31)-c1cccc(c1)C[C@H](NC(=O)[C@H](C(C)C)N(C)C(=O)[C@H]1CCN(C/C=C/C(=O)N3CC(F)(F)C3)C1)C(=O)N1CCC[C@H](N1)C(=O)OCC(C)(C)C2` (atropisomer, axis not shown) [Compound 115, (3S)-1-((E)-4-(3,3-difluoroazetidin-1-yl)-4-oxobut-2-en-1-yl)-N-((2S)-1-(((6^3S,4S)-1^1-ethyl-1^2-(2-((S)-1-methoxyethyl)pyridin-3-yl)-10,10-dimethyl-5,7-dioxo-6^1,6^2,6^3,6^4,6^5,6^6-hexahydro-1^1H-8-oxa-1(5,3)-indola-6(1,3)-pyridazina-2(1,3)-benzenacycloundecaphane-4-yl)amino)-3-methyl-1-oxobutan-2-yl)-N-methylpyrrolidine-3-carboxamide]: the concentration for half-maximal inhibition (IC50) under setting [1] was less than 1 nM.
On to `CCn1c(-c2cccnc2[C@H](C)OC)c2c3cc(ccc31)-c1csc(n1)C[C@H](NC(=O)[C@H](C(C)C)N(C)C(=O)[C@H]1CCN(C(C)C#CC(=O)N(C)C)C1)C(=O)N1CCC[C@H](N1)C(=O)OCC(C)(C)C2` (stereo partly drawn) [Compound 114, (3S)-1-(5-(dimethylamino)-5-oxopent-3-yn-2-yl)-N-((2S)-1-(((63S,4S,Z)-1^1-ethyl-1^2-(2-((S)-1-methoxyethyl)pyridin-3-yl)-10,10-dimethyl-5,7-dioxo-6^1,6^2,6^3,6^4,6^5,6^6-hexahydro-11H-8-oxa-2(4,2)-thiazola-1(5,3)-indola-6(1,3)-pyridazinacycloundecaphane-4-yl)amino)-3-methyl-1-oxobutan-2-yl)-N-methylpyrrolidine-3-carboxamide], for which the IC50 under setting [1] is less than 1 nM.
As to `CCn1c(-c2cccnc2[C@H](C)OC)c2c3cc(ccc31)-c1cccc(c1)C[C@H](NC(=O)[C@H](C(C)C)N(C)C(=O)C1CCN(CC#CC(=O)N(C)C)CC1)C(=O)N1CCC[C@H](N1)C(=O)OCC(C)(C)C2` (atropisomer, axis not shown) [Compound 109, 1-(4-(dimethylamino)-4-oxobut-2-yn-1-yl)-N-((2S)-1-(((6^3S,4S)-1^1-ethyl-1^2-(2-((S)-1-methoxyethyl)pyridin-3-yl)-10,10-dimethyl-5,7-dioxo-6^1,6^2,6^3,6^4,6^5,6^6-hexahydro-1^1H-8-oxa-1(5,3)-indola-6(1,3)-pyridazina-2(1,3)-benzenacycloundecaphane-4-yl)amino)-3-methyl-1-oxobutan-2-yl)-N-methylpiperidine-4-carboxamide], under setting [1], the IC50 lay within 1 to 10 nM.
Consider `CCn1c(-c2cccnc2[C@H](C)OC)c2c3cc(ccc31)-c1csc(n1)C[C@H](NC(=O)[C@H](C(C)C)N(C)C(=O)[C@H]1CCN(CC#CC(=O)N3CC(F)(F)C3)C1)C(=O)N1CCC[C@H](N1)C(=O)OCC(C)(C)C2` (atropisomer, axis not shown) [Compound 117, (3S)-1-(4-(3,3-difluoroazetidin-1-yl)-4-oxobut-2-yn-1-yl)-N-((2S)-1-(((6^3S,4S,Z)-1^1-ethyl-1^2-(2-((S)-1-methoxyethyl)pyridin-3-yl)-10,10-dimethyl-5,7-dioxo-6^1,6^2,6^3,6^4,6^5,6^6-hexahydro-1^1H-8-oxa-2(4,2)-thiazola-1(5,3)-indola-6(1,3)-pyridazinacycloundecaphane-4-yl)amino)-3-methyl-1-oxobutan-2-yl)-N-methylpyrrolidine-3-carboxamide], for which the IC50 by setting is: under setting [1], greater than 100 nM; under setting [2], 1 to 10 nM.
With `CCn1c(-c2cccnc2[C@H](C)OC)c2c3cc(ccc31)-c1cccc(c1)C[C@H](NC(=O)[C@H](C(C)C)N(C)C(=O)[C@H]1CCN(C/C=C/C(=O)N(C)C)C1)C(=O)N1CCC[C@H](N1)C(=O)OCC(C)(C)C2` (atropisomer, axis not shown) [Compound 101, (3S)-1-((E)-4-(dimethylamino)-4-oxobut-2-en-1-yl)-N-((2S)-1-(((6^3S,4S)-1^1-ethyl-1^2-(2-((S)-1-methoxyethyl)pyridin-3-yl)-10,10-dimethyl-5,7-dioxo-6^1,6^2,6^3,6^4,6^5,6^6-hexahydro-1^1H-8-oxa-1(5,3)-indola-6(1,3)-pyridazina-2(1,3)-benzenacycloundecaphane-4-yl)amino)-3-methyl-1-oxobutan-2-yl)-N-methylpyrrolidine-3-carboxamide], the IC50 under setting [1] was in the range of 10 to 100 nM and the IC50 under setting [2] was 10 to 100 nM.
Regarding `CCn1c(-c2cccnc2[C@H](C)OC)c2c3cc(ccc31)-c1csc(n1)C[C@H](NC(=O)[C@H](C(C)C)N(C)C(=O)N1[C@H](C)CN(CC#CC(=O)N(C)C)C[C@H]1C)C(=O)N1CCC[C@H](N1)C(=O)OCC(C)(C)C2` [Compound 105, (2R,6R)-4-(4-(dimethylamino)-4-oxobut-2-yn-1-yl)-N-((2S)-1-(((6^3S,4S,Z)-1^1-ethyl-1^2-(2-((S)-1-methoxyethyl)pyridin-3-yl)-10,10-dimethyl-5,7-dioxo-6^1,6^2,6^3,6^4,6^5,6^6-hexahydro-1^1H-8-oxa-2(4,2)-thiazola-1(5,3)-indola-6(1,3)-pyridazinacycloundecaphane-4-yl)amino)-3-methyl-1-oxobutan-2-yl)-N,2,6-trimethylpiperazine-1-carboxamide], the IC50 is, setting by setting: under setting [1], 10 to 100 nM; under setting [2], 10 to 100 nM.
